Experimental data reported in PMC4511006 (PLoS ONE, 2015).
pKd: −log10 of the molar value. Ends that are not written are not given here.

Experiments:
[1] = tested on: classical pathway complement activity in factor B-depleted human serum; assay: Hemolysis assay using factor-B depleted serum and antibody-sensitized sheep erythrocytes; type: biochemical; settings: 0.77mM peptide in factor B-depleted serum; triplicate, mean; standardized to water or DMSO
Procedure: (§1) Soluble peptides were dissolved in water whereas insoluble peptides were reconstituted in DMSO. Results were standardized to water or DMSO, as appropriate.

ficolin L (ficolin-2) = ficolin L (ficolin-2) (Homo sapiens, UniProt Q15485); assay: ELISA, biotinylated PA binding to ficolin L; settings: ficolin adsorbed at 10μg/mL, 0.4M NaCl in blocking buffer, compared with C1q
Procedure: (§2) Wild-type recombinant ficolins L (ficolin-2), H (ficolin-3), M (ficolin-1) were adsorbed to a microtiter plate at 10μg/mL. C1q (25nM) and BSA (30μg/mL) were immobilized as controls. Plates were blocked with 3% BSA/PBST for 2h. Biotinylated PA was added at various concentrations in blocking buffer containing 0.4M NaCl (to reduce nonspecific binding) and incubated for 1h at room temperature. Following washing, wells were probed neutravidin-HRP (1:4000) in blocking buffer for 1h and developed as described above. Absorbance values from wells not incubated with biotinylated PA were subtracted as background.

C1q = target: T1, C1q (Homo sapiens, UniProt P02745+P02746+P02747); assay: Cross-linking of biotinylated PA to C1q with BS3, SDS-PAGE/western blot; type: binding; settings: C1q:biotinylated PA 1:25, BS3 20μM
T1 construct: Purified C1q (1μg) was added to wells
Procedure: Purified C1q and biotinylated PA, at a ratio of 1:25, were incubated in conjugation buffer (0.1M Na2HPO4, 0.15M NaCl, pH 8.0) at room temperature for 2.5h. The crosslinker BS^3 (Bis(sulfosuccinimidlyl) suberate, Pierce) was added to a final concentration of 20μM and the mixture was incubated for 30 min. The reaction was quenched with 1M Tris-HCl (pH 7.5) to a final concentration of […] for 15 min. Reactions were analyzed via SDS-PAGE (NU-PAGE Bis/Tris 4–12% gradient gel) and western blot using a 1:1500 dilution of streptavidin IR 680 (LiCor) for 1h, 1:2000 dilution of goat anti-C1q IgG (CompTech) for 1h and 1:10,000 dilution of donkey anti-goat IgG IR 800 (Licor) for 1h. Gels were analyzed on an Odyssey Infrared Imaging System (Licor) and identical gels were visualized with bio-safe Coomassie stain (Bio-Rad) to confirm total protein content.

ficolin M (ficolin-1) = ficolin M (ficolin-1) (Homo sapiens, UniProt O00602); assay: ELISA, biotinylated PA binding to ficolin M; settings: ficolin adsorbed at 10μg/mL, 0.4M NaCl in blocking buffer, compared with C1q
Procedure: as §2

ficolin H (ficolin-3) = ficolin H (ficolin-3) (Homo sapiens, UniProt O75636); assay: ELISA, biotinylated PA binding to ficolin H; settings: ficolin adsorbed at 10μg/mL, 0.4M NaCl in blocking buffer, compared with C1q
Procedure: as §2

Solubility in water = type: physicochemical
Procedure: as §1

[2] = target: T2, C1 complex (C1s bound to C1q) (Homo sapiens, UniProt P02745+P02746+P02747); assay: Displacement (competition ELISA) assay of C1s from C1; type: binding; settings: C1 0.05μg; CP from 0.145μM, PA from 1.45μM (10-fold molar excess)
T2 construct: partially purified C1 complex was added to wells at a constant amount
Procedure: This was performed similarly to the competitive binding assay described by Hair et al., 2010 [8], with the following differences. Plates were coated with monoclonal antibody to C1q (Quidel) at 1:1000 overnight. In blocking buffer containing 2mM CaC1_2, partially purified C1 complex was added to wells at a constant amount (0.05μg) with decreasing amounts of either CP or PA, starting with concentrations for CP at 0.145μM and 1.45μM for PA. Detection of C1q and C1s was confirmed as described by Hair et al., 2010 [8].

complement activation = settings: Wistar rats, delivered IV; cited from earlier work
From the text: However, a serious limitation to these peptide analogs was their lack of solubility in aqueous solution. Given the aqueous solubility of PA-dPEG24, we set out to determine their efficacy in vivo.

intact C1q = target: intact C1q; design: method as in PMID 22906481; settings: SPR; cited from earlier work

Sequence of ficolin H (ficolin-3) (O75636 24-299): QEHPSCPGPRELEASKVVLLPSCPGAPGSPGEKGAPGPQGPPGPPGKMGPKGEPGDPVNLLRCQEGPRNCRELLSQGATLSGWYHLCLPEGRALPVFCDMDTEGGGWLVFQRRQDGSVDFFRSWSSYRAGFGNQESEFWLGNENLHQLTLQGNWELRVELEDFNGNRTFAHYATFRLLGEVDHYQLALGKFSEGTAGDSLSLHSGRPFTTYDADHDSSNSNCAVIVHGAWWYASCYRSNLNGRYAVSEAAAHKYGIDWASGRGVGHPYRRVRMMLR
Sequence of ficolin L (ficolin-2) (Q15485 26-313): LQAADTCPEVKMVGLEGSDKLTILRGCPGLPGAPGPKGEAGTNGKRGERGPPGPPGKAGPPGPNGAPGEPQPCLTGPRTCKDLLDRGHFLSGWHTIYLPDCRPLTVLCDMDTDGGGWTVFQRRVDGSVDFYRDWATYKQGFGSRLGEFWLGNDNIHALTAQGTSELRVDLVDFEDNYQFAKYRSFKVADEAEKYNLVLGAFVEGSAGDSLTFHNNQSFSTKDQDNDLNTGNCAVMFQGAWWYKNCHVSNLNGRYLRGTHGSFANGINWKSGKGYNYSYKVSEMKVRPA
T2 sequence (P02745 23-245): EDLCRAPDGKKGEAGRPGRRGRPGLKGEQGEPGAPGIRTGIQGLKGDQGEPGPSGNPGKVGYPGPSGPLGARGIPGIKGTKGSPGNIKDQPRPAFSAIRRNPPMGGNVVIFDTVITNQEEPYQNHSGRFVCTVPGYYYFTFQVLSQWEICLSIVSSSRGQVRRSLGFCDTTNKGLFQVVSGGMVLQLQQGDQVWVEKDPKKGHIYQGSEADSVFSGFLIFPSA
T2 sequence (P02746 28-253): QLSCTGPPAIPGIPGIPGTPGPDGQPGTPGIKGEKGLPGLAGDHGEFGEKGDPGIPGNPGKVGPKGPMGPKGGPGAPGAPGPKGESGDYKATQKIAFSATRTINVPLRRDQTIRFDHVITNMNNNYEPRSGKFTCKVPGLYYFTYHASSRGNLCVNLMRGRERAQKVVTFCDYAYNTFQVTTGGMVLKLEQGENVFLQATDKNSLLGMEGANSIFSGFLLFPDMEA
T2 sequence (P02747 29-245): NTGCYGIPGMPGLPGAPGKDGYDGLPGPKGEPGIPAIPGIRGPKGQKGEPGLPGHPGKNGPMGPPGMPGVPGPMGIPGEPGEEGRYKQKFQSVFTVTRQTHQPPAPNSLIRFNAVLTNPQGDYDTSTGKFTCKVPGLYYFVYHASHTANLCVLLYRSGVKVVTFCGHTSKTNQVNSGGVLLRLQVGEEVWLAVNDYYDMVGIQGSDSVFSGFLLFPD
T1 sequence (P02745 23-245): as the sequence (P02745 23-245) above
T1 sequence (P02746 28-253): as the sequence (P02746 28-253) above
T1 sequence (P02747 29-245): as the sequence (P02747 29-245) above
Sequence of ficolin M (ficolin-1) (O00602 30-326): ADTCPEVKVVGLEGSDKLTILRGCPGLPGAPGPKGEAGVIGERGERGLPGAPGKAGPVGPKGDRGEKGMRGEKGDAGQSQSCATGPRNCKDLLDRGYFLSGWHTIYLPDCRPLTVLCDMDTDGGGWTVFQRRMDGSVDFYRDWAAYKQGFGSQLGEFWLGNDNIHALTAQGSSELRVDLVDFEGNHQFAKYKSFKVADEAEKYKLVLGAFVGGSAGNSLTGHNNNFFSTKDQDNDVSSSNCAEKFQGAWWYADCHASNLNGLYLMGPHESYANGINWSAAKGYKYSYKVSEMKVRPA

Compound: EALILEPICCQERAA [PA-I1E, glutamic acid substitution peptide of PA]
- Hemolysis (%) [1]: 89.27%

Compound: IELILEPICCQERAA [PA-A2E, glutamic acid substitution peptide of PA]
- Hemolysis (%) [1]: 92.24%

Compound: IALILRPICCQERAA [PA-E6R, arginine substitution peptide of PA]
- Hemolysis (%) [1]: 87.59%

Compound: IALILEPECCQERAA [PA-I8E, glutamic acid substitution peptide of PA]
- Hemolysis (%) [1]: 95.74%

Compound: IALRLEPICCQERAA [PA-I4R, arginine substitution peptide of PA]
- Hemolysis (%) [1]: 43.71%

Compound: RALILEPICCQERAA [PA-I1R, arginine substitution peptide of PA]
- Hemolysis (%) [1]: 91.93%

Compound: biotinylated PA: C-terminally biotinylated PA peptide (IALILEPICCQERAA-biotin; cysteine pairing not given here)
- binding to ficolin L (ficolin L (ficolin-2)): bound PA to the same degree as C1q
- binding to C1q chains after cross-linking (C1q): can bind monomeric chains of C1q along with the dimers A-B and C-C
- binding to ficolin M (ficolin M (ficolin-1)): bound PA to the same degree as C1q
- binding to ficolin H (ficolin H (ficolin-3)): bound PA to the same degree as C1q

Compound: IALELEPICCQERAA [PA-I4E, glutamic acid substitution peptide of PA]
- Hemolysis (%) [1]: 92.07%

Compound: IALILERICCQERAA [PA-P7R, arginine substitution peptide of PA]
- Hemolysis (%) [1]: 89.85%

Compound: IALILEPICCQERAR [PA-A15R]
- Hemolysis (%) [1]: 44.24%

Compound: CC[C@H](C)[C@H](N)C(=O)N[C@@H](C)C(=O)N[C@@H](CC(C)C)C(=O)N[C@H](C(=O)N[C@@H](CC(C)C)C(=O)N[C@@H](CCC(=O)O)C(=O)N1CCC[C@H]1C(=O)N[C@H](C(=O)N[C@@H](CS)C(=O)N[C@@H](CS)C(=O)N[C@@H](CCC(N)=O)C(=O)N[C@@H](CCC(=O)O)C(=O)N[C@@H](CCCNC(=N)N)C(=O)N[C@@H](C)C(=O)N[C@@H](C)C(=O)O)[C@@H](C)CC)[C@@H](C)CC [PA]
- solubility in water / aqueous solutions (Solubility in water): lack of solubility in aqueous solutions
- displacement of C1s from C1q [2]: did not demonstrate competitive displacement of C1s from C1q
- inhibition of complement activation in vivo (complement activation): able to inhibit complement activation in Wistar rats
- pKd (intact C1q): 7.48
- Hemolysis (%) [1]: 39.49%

Compound: IALILEPICCRERAA [PA-Q11R]
- Hemolysis (%) [1]: 90.87%

Compound: IALILEEICCQERAA [PA-P7E, glutamic acid substitution peptide of PA]
- Hemolysis (%) [1]: 96.10%

Compound: IALILEPICCQRRAA [PA-E12R]
- Hemolysis (%) [1]: 95.83%

Compound: IALIEEPICCQERAA [PA-L5E, glutamic acid substitution peptide of PA]
- Hemolysis (%) [1]: 94.33%

Compound: IALILEPICCQERRA [PA-A14R]
- Hemolysis (%) [1]: 88.65%

Compound: IRLILEPICCQERAA [PA-A2R, arginine substitution peptide of PA]
- Hemolysis (%) [1]: 87.28%

Compound: IALILEPRCCQERAA [PA-I8R, arginine substitution peptide of PA]
- Hemolysis (%) [1]: 62.32%

Compound: IALILEPICCEERAA [PA-Q11E]
- Hemolysis (%) [1]: 65.60%

Compound: IALILEPICCQEREA [PA-A14E]
- Hemolysis (%) [1]: 98.09%

Compound: IARILEPICCQERAA [PA-L3R, arginine substitution peptide of PA]
- Hemolysis (%) [1]: 80.45%

Compound: IAEILEPICCQERAA [PA-L3E, glutamic acid substitution peptide of PA]
- Hemolysis (%) [1]: 100.27%

Compound: IALILEPICCQEEAA [PA-R13E]
- Hemolysis (%) [1]: 101.99%

Compound: IALIREPICCQERAA [PA-L5R, arginine substitution peptide of PA]
- Hemolysis (%) [1]: 93.40%

Compound: IALILEPICCQERAE [PA-A15E]
- Hemolysis (%) [1]: 93.13%
